Laboratory results published in US20260232767A1, “INTERLEUKIN-23 RECEPTOR ANTAGONIST PEPTIDES FOR USE IN THE TREATMENT OF PSORIASIS” (Janssen Pharmaceutica NV, priority 2023, published 2026).

System: subjects with moderate-to-severe plaque psoriasis
Assay: PASI response, Example 1 16-week dose-ranging study
Type: in vivo, human
Settings: for PASI 100% Improvement, subjects / PASI ≥75% Improvement, subjects / PASI ≥90% Improvement, subjects: Combined doses
Method: The Psoriasis Area and Severity Index (PASI) is a system used for assessing and grading the severity of psoriatic lesions and their response to therapy. In the PASI system, the body is divided into four regions: the head, trunk, upper extremities, and lower extremities. Each of these areas is assessed and scored separately for erythema, induration, and scaling, which are each rated on a scale of 0 to 4 and extent of involvement on a scale of 0 to 6. The PASI produces a numeric score (a “PASI score”) that can range from 0 to 72. A higher score indicates more severe disease.
This was a randomized, double-blind, placebo-controlled, dose-ranging, parallel group, multicenter, interventional study in subjects with moderate-to-severe plaque psoriasis. A target of 240 subjects were enrolled in this study with 40 subjects planned per intervention group.
Clinician-reported outcomes including Psoriasis Area and Severity Index (PASI), Body Surface Area (BSA), Investigator's Global Assessment (IGA), Nail Psoriasis Area and Severity Index (NAPSI), Fingernail Physician's Global Assessment (f-PGA), Static Physician's Global Assessment of Genitalia (s-PGA-G), Physician's Global Assessment of Hands and/or Feet (hf-PGA), and Scalp Specific Investigator Global Assessment (ss-IGA) were obtained at Week 0, 8, and 16. PASI and IGA were also obtained at Weeks 1, 2, 4, and 12, and at Week 20, four weeks after the administration of the tablets has stopped.
The primary efficacy endpoint was the proportion of participants achieving a PASI 75 response at Week 16, defined as at least a 75% reduction from baseline in PASI total score.
For the primary analysis, composite strategy (non-responder imputation) was applied to address intercurrent event #1 (Discontinuation of study intervention due to lack of efficacy or due to an AE of worsening of psoriasis) and #2 (initiation of a protocol-prohibited medication or therapy that could improve psoriasis); and treatment policy strategy (observed data) was applied to intercurrent event #3 (Discontinuation of study intervention due to other reasons). Participants with missing data after application of ICEs are also considered as non-responders.
In addition to the response analysis, pairwise comparisons of each treatment group versus the placebo group were performed for the primary endpoint of PASI 75 at Week 16. Pairwise comparisons were not adjusted for multiplicity. The Cochran-Mantel-Haenszel chi-square statistic stratified by baseline weight category (≤90 kg, >90 kg) at a 2-sided significance level of 0.05 was used (Table 2).

[1] = Week 16, trough plasma conc Q2 to <Q3
[2] = Week 16, trough plasma conc ≥Q3
[3] = Week 16, 25 mg BID, intermediate plasma concentration quartile <Q1, N=1
[4] = Week 16, 25 mg BID, intermediate plasma concentration quartile Q1 to <Q2, N=1
[5] = Week 16, 25 mg BID, intermediate plasma concentration quartile Q2 to <Q3, N=1
[6] = Week 16, 25 mg BID, intermediate plasma concentration quartile ≥Q3, N=1
[7] = Week 16, 25 mg QD, intermediate plasma concentration quartile Q1 to <Q2, N=1
[8] = Week 16, 25 mg QD, intermediate plasma concentration quartile Q2 to <Q3, N=1
[9] = Week 16, 25 mg QD, intermediate plasma concentration quartile ≥Q3, N=1
[10] = Week 16, 50 mg QD, intermediate plasma concentration quartile <Q1, N=1
[11] = Week 16, 50 mg QD, intermediate plasma concentration quartile Q1 to <Q2, N=1
[12] = Week 16, 50 mg QD, intermediate plasma concentration quartile Q2 to <Q3, N=1
[13] = Week 16, 50 mg QD, intermediate plasma concentration quartile ≥Q3, N=2
[14] = Week 16, 100 mg BID, intermediate plasma concentration quartile <Q1, N=1
[15] = Week 16, 100 mg BID, intermediate plasma concentration quartile Q1 to <Q2, N=1
[16] = Week 16, 100 mg BID, intermediate plasma concentration quartile Q2 to <Q3, N=1
[17] = Week 16, 100 mg BID, intermediate plasma concentration quartile ≥Q3, N=2
[18] = Week 16, 100 mg QD, intermediate plasma concentration quartile <Q1, N=1
[19] = Week 16, 100 mg QD, intermediate plasma concentration quartile Q1 to <Q2, N=1
[20] = Week 16, 100 mg QD, intermediate plasma concentration quartile Q2 to <Q3, N=1
[21] = Week 16, 100 mg QD, intermediate plasma concentration quartile ≥Q3, N=1
[22] = Week 16, Combined regimens, intermediate plasma concentration quartile <Q1, N=5
[23] = Week 16, Combined regimens, intermediate plasma concentration quartile Q1 to <Q2, N=5
[24] = Week 16, Combined regimens, intermediate plasma concentration quartile Q2 to <Q3, N=5
[25] = Week 16, Combined regimens, intermediate plasma concentration quartile ≥Q3, N=6

CC(=O)NCCCC[C@@H]1NC(=O)[C@H](Cc2c[nH]c3c(C)cccc23)NC(=O)[C@H]([C@@H](C)O)NC(=O)[C@H](CC(N)=O)NC(=O)[C@@H](NC(C)=O)C(C)(C)SSC(C)(C)[C@@H](C(=O)N[C@@H](Cc2ccc(OCCN)cc2)C(=O)N[C@@H](Cc2ccc3ccccc3c2)C(=O)NC2(C(=O)N[C@@H](CCC(=O)O)C(=O)N[C@@H](CC(N)=O)C(=O)N[C@@H](Cc3cccnc3)C(=O)N(C)CC(N)=O)CCOCC2)NC1=O [IL-23 receptor antagonist peptide, Ac-[Pen]*-N-T-[W(7-Me)]-[Lys(Ac)]-[Pen]*-Phe[4-(2-aminoethoxy)]-[2-Nal]-[THP]-E-N-[3-Pal]-Sarc-NH2 (*[Pen]-[Pen]* formdisulfidebond)]
11 (42.3%): PASI ≥90% Improvement, subjects [1]
22 (81.5%): PASI ≥75% Improvement, subjects [2]
6 (100.0%): PASI ≥75% Improvement, subjects n (%) [25]
3 (50.0%): PASI 100% Improvement, subjects n (%) [25]
5 (83.3%): PASI ≥90% Improvement, subjects n (%) [25]
15 (55.6%): PASI ≥90% Improvement, subjects [2]
4 (15.4%): PASI 100% Improvement, subjects [1]
2 (100.0%): PASI 100% Improvement, subjects n (%) [17] | PASI ≥75% Improvement, subjects n (%) [17] | PASI ≥90% Improvement, subjects n (%) [17]
3 (60.0%): PASI 100% Improvement, subjects n (%) [22] | PASI ≥90% Improvement, subjects n (%) [22] | PASI ≥75% Improvement, subjects n (%) [23] | PASI ≥75% Improvement, subjects n (%) [24]
9 (33.3%): PASI 100% Improvement, subjects [2]
0): PASI ≥90% Improvement, subjects n (%) [21]
14 (53.8%): PASI ≥75% Improvement, subjects [1]
4 (80.0%): PASI ≥75% Improvement, subjects n (%) [22]
0: PASI 100% Improvement, subjects n (%) [3] | PASI ≥75% Improvement, subjects n (%) [3] | PASI ≥90% Improvement, subjects n (%) [3] | PASI 100% Improvement, subjects n (%) [4] | PASI ≥90% Improvement, subjects n (%) [4] | PASI 100% Improvement, subjects n (%) [5] | PASI ≥75% Improvement, subjects n (%) [5] | PASI ≥90% Improvement, subjects n (%) [5] | PASI 100% Improvement, subjects n (%) [6] | PASI 100% Improvement, subjects n (%) [7] | PASI ≥75% Improvement, subjects n (%) [7] | PASI ≥90% Improvement, subjects n (%) [7] | PASI 100% Improvement, subjects n (%) [9] | PASI ≥75% Improvement, subjects n (%) [9] | PASI ≥90% Improvement, subjects n (%) [9] | PASI 100% Improvement, subjects n (%) [10] | PASI ≥90% Improvement, subjects n (%) [10] | PASI 100% Improvement, subjects n (%) [13] | PASI 100% Improvement, subjects n (%) [16] | PASI ≥90% Improvement, subjects n (%) [16] | PASI 100% Improvement, subjects n (%) [20] | PASI ≥90% Improvement, subjects n (%) [20] | PASI 100% Improvement, subjects n (%) [21]
1 (20.0%): PASI 100% Improvement, subjects n (%) [24] | PASI ≥90% Improvement, subjects n (%) [24]
significantly greater improvement: Improvement (reduction) in PASI total score from baseline (each dose group vs placebo, Week 16)
1 (100.0%): PASI ≥75% Improvement, subjects n (%) [4] | PASI ≥75% Improvement, subjects n (%) [6] | PASI ≥90% Improvement, subjects n (%) [6] | PASI 100% Improvement, subjects n (%) [8] | PASI ≥75% Improvement, subjects n (%) [8] | PASI ≥90% Improvement, subjects n (%) [8] | PASI ≥75% Improvement, subjects n (%) [10] | PASI 100% Improvement, subjects n (%) [11] | PASI ≥75% Improvement, subjects n (%) [11] | PASI ≥90% Improvement, subjects n (%) [11] | PASI 100% Improvement, subjects n (%) [12] | PASI ≥75% Improvement, subjects n (%) [12] | PASI ≥90% Improvement, subjects n (%) [12] | PASI 100% Improvement, subjects n (%) [14] | PASI ≥75% Improvement, subjects n (%) [14] | PASI ≥90% Improvement, subjects n (%) [14] | PASI 100% Improvement, subjects n (%) [15] | PASI ≥75% Improvement, subjects n (%) [15] | PASI ≥90% Improvement, subjects n (%) [15] | PASI ≥75% Improvement, subjects n (%) [16] | PASI 100% Improvement, subjects n (%) [18] | PASI ≥75% Improvement, subjects n (%) [18] | PASI ≥90% Improvement, subjects n (%) [18] | PASI 100% Improvement, subjects n (%) [19] | PASI ≥75% Improvement, subjects n (%) [19] | PASI ≥90% Improvement, subjects n (%) [19] | PASI ≥75% Improvement, subjects n (%) [20] | PASI ≥75% Improvement, subjects n (%) [21]
1 (50.0%): PASI ≥75% Improvement, subjects n (%) [13] | PASI ≥90% Improvement, subjects n (%) [13]
2 (40.0%): PASI 100% Improvement, subjects n (%) [23] | PASI ≥90% Improvement, subjects n (%) [23]
